Results published in patent publication US10617662B2, “Autophagy activation-induced compound for improving skin inflammation for aging” (INCOSPHARM CORPORATION, priority 2017, dated 2020).

Columns and labels:
IL-20 (interleukin-20) = assay: Cytokine gene expression, IL-20, TNFα/IFN-γ induced inflammatory condition; format: cell-based, human; conditions: FIG. 8
[1] = tested on: Tbet (T-box transcription factor); assay: Expression of psoriasis-related transcription factor Tbet in induced inflammatory condition; format: cell-based, human; conditions: IL-17A/TNFα- or IL-17A/IFNγ-induced inflammatory condition
Experimental: [The source words this procedure for another target and says it was used here with some conditions changed.] A psoriasis-related genes were selected from the cDNA array result in which Compound 8 of the present invention was treated in HaCaT cells. In order to analyze whether Compound 8 has an effect on psoriasis alleviation, RT-PCR analysis for IL-36′ (interleukin 36 gamma), KLK7 (Kallikrein-related peptidase 7), OASL (2′-5′-Oligoadenylate Synthetase Like) and ALOX12B (Arachidonate 12-lipoxygenase, 12R type) which are very closely related to psoriasis was carried out. Further, KRT16 (Keratin 16), KRT6 (Keratin 6) and KRT1 (Keratin 1), known as psoriasis-related proliferation, differentiation markers were confirmed by a western blot analysis. As the specific experimental method, HEKa cells (Human Epidermal keratinocytes, adult), human-derived epidermal keratinocytes were seeded on a 24 well plate at a density of 1×10^5 cells, and cultured in an EpiLife medium (1× Human keratinocyte Growth supplement, 1× antibiotics) in an incubator under 37° C. and 5% CO2 for 24 hours. […]

[2] = tested on: psoriasis animal model induced by imiquimod 5% cream; assay: Psoriasis animal model (imiquimod), clinical findings: erythema; format: in vivo, BALB/c mice
Experimental: In order to confirm the psoriasis treatment effect by Compound 8 of the present invention, dorsal hair of 8-week-old BALB/c mice (female) was removed using hair removal cream (Veet®, Oxy Reckitt Benckiser, Cedex, France), and subsequently imiquimod 5% cream (Aldara®; 3M Pharmaceuticals, UK; 62.5 mg) was applied on the back and both ears of the mice twice in the morning and in the afternoon (Sensitization; Day 0). Then, after a barrier recovery period of 2 days, imiquimod 5% cream (62.5 mg/day) was applied repeatedly for 7 days (Induction stage; Day 2 -Day 8), thereby inducing the psoriasis animal model.
After inducing the psoriasis animal model, Compound 8 of the present invention dissolved in ethanol (0.5%) and cream containing Compound 8 of the present invention (The same composition as that of the cosmetic composition of Example 14 […]; […]). An untreated control group and a disease control group (vehicle) were treated with cream not containing Compound 8 of the present invention (cosmetic composition of Comparative Example 2) and ethanol, and during the treatment period, imiquimod 5% cream was applied thereon every other day, thereby maintaining psoriasis.

[3] = tested on: CXCL2 (Chemokine (C-X-C motif) ligand 2); assay: Cytokine gene expression, CXCL2, TNFα/IFN-γ induced inflammatory condition; format: cell-based, human; conditions: FIG. 8
IL-8 (interleukin 8) = assay: ELISA for IL-8 in HEKa cells under inflammatory condition; format: cell-based, human; conditions: TNF-α/IFN-γ or IL-17A/IL-22 induced inflammatory condition, 10·M, FIGS. 5 to 7
Experimental: In order to analyze whether treatment of Compound 8 has an atopy alleviation effect, ELISA (enzyme-linked immunosorbent assay) for IL-6 (interleukin 6) and IL-8 (interleukin 8) which are very closely related to atopic inflammation and psoriasis was performed.
As the specific experimental method, HEKa cells (Human Epidermal keratinocytes, adult), human-derived epidermal keratinocytes were seeded on a 24 well plate at a density of 1×10^5 cells, and cultured in an EpiLife medium (1× Human keratinocyte Growth supplement, 1× antibiotics) in an incubator under 37° C. and 5% CO2 for 24 hours.
After culturing, while an inflammatory condition was induced by treatment with either TNF-α (Tumor necrosis factor-α)/IFN-γ (interferon-γ) or IL-17A (interleukin-17A)/IL-22 (interleukin-22) in each well, further treatment was performed with Compound 8 of the present invention at a concentration of 10·M, and then the cells were incubated for a certain period. After completing culturing, media were collected, and then ELISA for each IL-6 and IL-8 was carried out.

[4] = tested on: IL-1β (interleukin-1beta); assay: ELISA for IL-1β in LPS-treated HEKa cells; format: cell-based, human; conditions: LPS-induced inflammatory condition, 10·M, FIG. 10
Experimental: ELISA (enzyme-linked immunosorbent assay) for IL-1β (interleukin-1beta) which is very closely related to atopic inflammation and psoriasis was performed.
As a specific experimental method, HEKa cells (Human Epidermal keratinocytes, adult), human-derived epidermal keratinocytes were seeded on a 24 well plate at a density of 1×10^5 cells, and cultured in an EpiLife medium (1× Human keratinocyte Growth supplement, 1× antibiotics) in an incubator under 37° C. and 5% CO2 for 24 hours.
After culturing, while an inflammatory condition was induced by treatment with LPS (lipopolysaccharides) in each well, further treatment was performed with Compound 8 of the present invention and the compound of the following Comparative Example at a concentration of 10·M, and then the cells were incubated for a certain period. After completing culturing, media were collected, and then ELISA for IL-1β was carried out, and the results are shown in FIG. 10.

CCCCCCCCCCCCCCCC(=O)NCCCC[C@H](NC(=O)[C@H](CCCCN(CC(=O)O)CC(=O)O)N(CC(=O)O)CC(=O)O)C(=O)O [Compound 8]
expression level of IL-20 (IL-20 (interleukin-20)): reduced
expression level of Tbet [1]: reduced
erythema on day 14, reduction level ([2]; day 14 after treatment, FIG. 14): very remarkable
erythema increased by imiquimod ([2]; topical on back, 0.5% in ethanol or 0.5% cream, treatment for 6 days, FIG. 13): significantly reduced
expression level of CXCL2 [3]: reduced
secretion of IL-8 (IL-8 (interleukin 8)): significantly reduced
cytokine IL-1β secretion level [4]: significantly reduced
